In paper PMC6199744, “Development of Chemical Proteomics for the Folateome and Analysis of the Kinetoplastid Folateome” (ACS Infectious Diseases, 2018):
Read-outs that look alike come from different tables or passages of the source.

Assays:
Format in all cases: binding
[1] = target: T1, HeLa cell extract proteins (Homo sapiens, UniProt Q9Y316); conditions: HeLa; protein MEMO1
T1 construct: endogenous in cells; host or cells: HeLa cell extract
T1 sequence (Q9Y316 1-297): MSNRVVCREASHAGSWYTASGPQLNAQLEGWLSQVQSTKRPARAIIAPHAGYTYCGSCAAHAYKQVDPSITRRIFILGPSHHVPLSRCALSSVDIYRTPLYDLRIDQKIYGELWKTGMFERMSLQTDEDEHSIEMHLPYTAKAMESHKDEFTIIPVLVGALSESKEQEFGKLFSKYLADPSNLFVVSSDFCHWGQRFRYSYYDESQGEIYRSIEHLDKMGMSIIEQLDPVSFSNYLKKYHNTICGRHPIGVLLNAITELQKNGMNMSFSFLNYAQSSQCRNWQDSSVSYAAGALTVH

[2] = target: T2, HeLa cell extract proteins (Homo sapiens, UniProt O43776); conditions: protein NARS; HeLa
T2 construct: endogenous in cells; host or cells: HeLa cell extract
T2 sequence (O43776 1-548): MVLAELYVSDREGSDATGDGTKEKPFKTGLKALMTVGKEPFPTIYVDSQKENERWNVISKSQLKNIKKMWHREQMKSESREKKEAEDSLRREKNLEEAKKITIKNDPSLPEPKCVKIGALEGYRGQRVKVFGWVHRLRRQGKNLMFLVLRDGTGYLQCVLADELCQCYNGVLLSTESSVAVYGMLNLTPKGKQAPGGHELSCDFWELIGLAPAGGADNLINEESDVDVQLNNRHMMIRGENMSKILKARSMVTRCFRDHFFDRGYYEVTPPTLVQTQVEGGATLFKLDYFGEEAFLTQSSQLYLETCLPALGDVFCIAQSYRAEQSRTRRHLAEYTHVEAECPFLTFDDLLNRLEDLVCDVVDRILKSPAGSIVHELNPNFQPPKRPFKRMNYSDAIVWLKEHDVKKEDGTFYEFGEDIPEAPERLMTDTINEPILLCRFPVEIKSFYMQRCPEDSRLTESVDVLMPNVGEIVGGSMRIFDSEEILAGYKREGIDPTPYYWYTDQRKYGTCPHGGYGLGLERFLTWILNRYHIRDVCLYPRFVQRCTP

[3] = target: T3, HeLa cell extract proteins (Homo sapiens, UniProt Q5XKP0); conditions: captured protein C19ORF70; HeLa
T3 construct: endogenous in cells; host or cells: HeLa cell extract
T3 sequence (Q5XKP0 1-118): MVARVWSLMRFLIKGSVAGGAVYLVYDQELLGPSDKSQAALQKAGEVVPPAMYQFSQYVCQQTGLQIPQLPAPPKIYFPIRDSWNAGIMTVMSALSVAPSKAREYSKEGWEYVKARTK

[4] = target: T4, HeLa cell extract proteins (Homo sapiens, UniProt P61081); conditions: protein UBE2M; HeLa
T4 construct: endogenous in cells; host or cells: HeLa cell extract
T4 sequence (P61081 1-183): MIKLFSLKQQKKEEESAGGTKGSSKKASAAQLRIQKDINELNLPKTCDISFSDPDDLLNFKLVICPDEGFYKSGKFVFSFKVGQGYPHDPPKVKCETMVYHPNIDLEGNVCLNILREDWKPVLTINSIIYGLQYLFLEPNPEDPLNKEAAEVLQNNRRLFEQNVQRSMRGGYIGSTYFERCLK

[5] = target: T5, HeLa cell extract proteins (Homo sapiens, UniProt Q15393)
T5 construct: endogenous in cells; host or cells: HeLa cell extract
T5 sequence (Q15393 whole entry): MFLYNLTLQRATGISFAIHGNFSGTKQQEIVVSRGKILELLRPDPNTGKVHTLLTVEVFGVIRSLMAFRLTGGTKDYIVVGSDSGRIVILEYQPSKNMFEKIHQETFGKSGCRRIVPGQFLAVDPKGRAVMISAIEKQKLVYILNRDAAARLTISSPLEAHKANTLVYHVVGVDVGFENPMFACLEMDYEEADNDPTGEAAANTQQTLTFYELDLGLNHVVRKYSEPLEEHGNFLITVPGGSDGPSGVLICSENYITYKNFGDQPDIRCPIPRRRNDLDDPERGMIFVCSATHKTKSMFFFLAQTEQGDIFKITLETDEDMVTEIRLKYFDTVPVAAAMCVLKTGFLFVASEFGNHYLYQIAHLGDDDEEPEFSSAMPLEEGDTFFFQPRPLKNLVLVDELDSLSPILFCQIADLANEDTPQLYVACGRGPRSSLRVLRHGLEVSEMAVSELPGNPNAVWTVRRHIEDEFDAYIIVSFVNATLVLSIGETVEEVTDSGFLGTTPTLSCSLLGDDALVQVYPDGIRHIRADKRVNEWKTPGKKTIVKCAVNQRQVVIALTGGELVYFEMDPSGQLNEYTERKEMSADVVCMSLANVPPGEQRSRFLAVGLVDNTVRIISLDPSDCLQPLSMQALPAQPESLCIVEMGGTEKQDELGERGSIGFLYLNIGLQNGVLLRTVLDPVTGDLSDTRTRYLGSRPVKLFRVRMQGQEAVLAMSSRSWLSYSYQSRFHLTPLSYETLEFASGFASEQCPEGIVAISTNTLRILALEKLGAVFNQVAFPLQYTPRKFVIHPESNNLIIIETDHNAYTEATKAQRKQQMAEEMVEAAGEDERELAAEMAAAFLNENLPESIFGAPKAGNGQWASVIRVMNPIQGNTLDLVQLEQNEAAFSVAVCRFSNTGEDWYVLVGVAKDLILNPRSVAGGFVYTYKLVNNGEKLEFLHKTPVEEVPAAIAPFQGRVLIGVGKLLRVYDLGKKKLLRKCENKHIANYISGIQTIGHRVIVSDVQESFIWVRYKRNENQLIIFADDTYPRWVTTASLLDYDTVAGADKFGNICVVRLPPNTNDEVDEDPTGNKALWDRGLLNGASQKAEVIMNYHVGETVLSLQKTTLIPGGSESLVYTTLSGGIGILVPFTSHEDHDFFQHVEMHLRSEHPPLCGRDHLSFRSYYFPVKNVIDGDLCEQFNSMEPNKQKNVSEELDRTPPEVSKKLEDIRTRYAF

[6] = target: T6, HeLa cell extract proteins (Homo sapiens, UniProt P30837)
T6 construct: endogenous in cells; host or cells: HeLa cell extract
T6 sequence (P30837 18-517): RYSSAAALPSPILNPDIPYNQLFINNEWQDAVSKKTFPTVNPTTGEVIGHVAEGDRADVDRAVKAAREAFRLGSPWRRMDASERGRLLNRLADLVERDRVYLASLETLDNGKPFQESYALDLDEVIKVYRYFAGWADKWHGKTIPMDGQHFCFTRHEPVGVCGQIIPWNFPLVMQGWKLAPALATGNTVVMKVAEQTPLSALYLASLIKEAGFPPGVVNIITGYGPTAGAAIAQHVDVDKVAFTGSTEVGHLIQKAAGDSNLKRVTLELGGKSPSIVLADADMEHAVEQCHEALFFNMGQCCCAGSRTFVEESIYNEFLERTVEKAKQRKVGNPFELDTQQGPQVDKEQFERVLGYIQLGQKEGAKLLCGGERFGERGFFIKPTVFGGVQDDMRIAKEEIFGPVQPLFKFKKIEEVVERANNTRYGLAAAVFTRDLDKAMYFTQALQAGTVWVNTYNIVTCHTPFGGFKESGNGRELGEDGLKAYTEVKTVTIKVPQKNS

[7] = target: T7, HeLa cell extract proteins (Homo sapiens, UniProt Q9UPT8)
T7 construct: endogenous in cells; host or cells: HeLa cell extract
T7 sequence (Q9UPT8 whole entry): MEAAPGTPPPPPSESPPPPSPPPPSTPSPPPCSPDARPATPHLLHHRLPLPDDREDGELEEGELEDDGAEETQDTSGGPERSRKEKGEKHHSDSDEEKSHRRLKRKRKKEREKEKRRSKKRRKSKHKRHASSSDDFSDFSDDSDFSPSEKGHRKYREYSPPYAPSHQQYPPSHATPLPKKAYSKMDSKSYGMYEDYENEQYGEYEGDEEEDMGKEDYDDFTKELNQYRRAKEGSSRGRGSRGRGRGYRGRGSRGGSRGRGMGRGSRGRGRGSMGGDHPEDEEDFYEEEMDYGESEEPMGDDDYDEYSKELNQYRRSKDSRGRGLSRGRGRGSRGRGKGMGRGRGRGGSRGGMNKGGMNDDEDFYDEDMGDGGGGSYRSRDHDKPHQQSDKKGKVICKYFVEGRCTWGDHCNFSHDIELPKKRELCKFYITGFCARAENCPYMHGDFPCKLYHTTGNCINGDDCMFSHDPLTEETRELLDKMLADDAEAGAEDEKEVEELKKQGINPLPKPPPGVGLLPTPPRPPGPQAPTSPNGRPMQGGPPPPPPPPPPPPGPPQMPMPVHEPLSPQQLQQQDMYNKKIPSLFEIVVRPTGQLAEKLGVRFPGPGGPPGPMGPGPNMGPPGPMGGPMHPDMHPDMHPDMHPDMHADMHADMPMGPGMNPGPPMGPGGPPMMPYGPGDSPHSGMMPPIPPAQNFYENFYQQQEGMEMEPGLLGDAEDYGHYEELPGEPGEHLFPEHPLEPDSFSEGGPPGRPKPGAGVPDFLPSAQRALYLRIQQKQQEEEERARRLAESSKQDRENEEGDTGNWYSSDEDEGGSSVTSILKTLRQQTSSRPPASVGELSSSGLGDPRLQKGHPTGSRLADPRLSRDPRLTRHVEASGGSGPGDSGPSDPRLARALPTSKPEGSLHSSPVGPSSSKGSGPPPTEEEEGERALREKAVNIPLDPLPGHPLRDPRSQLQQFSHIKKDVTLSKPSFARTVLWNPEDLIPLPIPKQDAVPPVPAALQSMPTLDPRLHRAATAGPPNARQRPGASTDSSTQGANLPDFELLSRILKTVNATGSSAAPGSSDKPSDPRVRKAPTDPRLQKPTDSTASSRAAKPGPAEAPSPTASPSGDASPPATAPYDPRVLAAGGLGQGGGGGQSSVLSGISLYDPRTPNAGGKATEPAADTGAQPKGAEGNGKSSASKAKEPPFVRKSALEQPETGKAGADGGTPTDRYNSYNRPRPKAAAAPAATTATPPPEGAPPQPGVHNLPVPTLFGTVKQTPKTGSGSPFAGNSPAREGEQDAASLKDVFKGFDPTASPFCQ

[8] = target: T8, HeLa cell extract proteins (Homo sapiens, UniProt P14174)
T8 construct: endogenous in cells; host or cells: HeLa cell extract
T8 sequence (P14174 1-115): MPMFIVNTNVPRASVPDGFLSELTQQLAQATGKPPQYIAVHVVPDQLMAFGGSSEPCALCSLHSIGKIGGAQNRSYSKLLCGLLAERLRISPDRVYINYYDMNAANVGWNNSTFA

[9] = target: T9, HeLa cell extract proteins (Homo sapiens, UniProt P24390)
T9 construct: endogenous in cells; host or cells: HeLa cell extract
T9 sequence (P24390 1-212): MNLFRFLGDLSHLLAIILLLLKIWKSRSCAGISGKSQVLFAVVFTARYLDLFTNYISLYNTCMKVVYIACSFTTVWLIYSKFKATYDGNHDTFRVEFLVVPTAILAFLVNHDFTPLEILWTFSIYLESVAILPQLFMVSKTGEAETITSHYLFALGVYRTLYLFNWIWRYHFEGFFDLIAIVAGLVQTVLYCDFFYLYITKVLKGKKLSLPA

[10] = target: T10, HeLa cell extract proteins (Homo sapiens, UniProt Q9P2J5)
T10 construct: endogenous in cells; host or cells: HeLa cell extract
T10 sequence (Q9P2J5 whole entry): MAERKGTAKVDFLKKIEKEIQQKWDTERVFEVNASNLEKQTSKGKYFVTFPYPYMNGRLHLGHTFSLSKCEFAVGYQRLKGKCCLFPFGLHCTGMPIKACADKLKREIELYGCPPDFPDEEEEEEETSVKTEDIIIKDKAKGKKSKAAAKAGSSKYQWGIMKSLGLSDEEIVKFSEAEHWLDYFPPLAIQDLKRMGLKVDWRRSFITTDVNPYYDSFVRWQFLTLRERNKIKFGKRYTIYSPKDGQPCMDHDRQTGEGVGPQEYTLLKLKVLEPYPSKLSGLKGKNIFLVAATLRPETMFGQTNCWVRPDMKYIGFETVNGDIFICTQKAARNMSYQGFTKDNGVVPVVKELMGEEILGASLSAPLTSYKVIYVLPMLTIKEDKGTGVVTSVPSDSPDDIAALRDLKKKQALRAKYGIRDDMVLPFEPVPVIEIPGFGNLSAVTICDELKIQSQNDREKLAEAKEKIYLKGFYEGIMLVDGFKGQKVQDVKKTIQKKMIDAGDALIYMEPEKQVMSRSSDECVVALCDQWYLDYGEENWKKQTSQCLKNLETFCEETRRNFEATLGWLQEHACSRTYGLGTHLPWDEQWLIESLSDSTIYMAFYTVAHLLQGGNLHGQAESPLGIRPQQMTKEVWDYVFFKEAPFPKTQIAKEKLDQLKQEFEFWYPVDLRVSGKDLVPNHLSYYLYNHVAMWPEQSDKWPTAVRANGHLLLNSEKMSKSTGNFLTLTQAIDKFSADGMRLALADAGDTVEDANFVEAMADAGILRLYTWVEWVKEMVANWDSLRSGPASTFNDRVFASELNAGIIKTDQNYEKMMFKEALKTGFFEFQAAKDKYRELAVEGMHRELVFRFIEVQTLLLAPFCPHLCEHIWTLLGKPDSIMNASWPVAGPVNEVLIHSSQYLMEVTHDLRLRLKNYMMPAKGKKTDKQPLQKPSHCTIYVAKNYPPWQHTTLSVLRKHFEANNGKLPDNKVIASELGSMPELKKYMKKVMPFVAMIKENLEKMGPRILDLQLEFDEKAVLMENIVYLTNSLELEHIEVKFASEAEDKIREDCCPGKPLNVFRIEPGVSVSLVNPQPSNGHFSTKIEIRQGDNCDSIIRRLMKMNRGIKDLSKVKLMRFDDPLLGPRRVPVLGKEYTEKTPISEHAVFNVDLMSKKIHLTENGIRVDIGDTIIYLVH

[11] = target: T11, HeLa cell extract proteins (Homo sapiens, UniProt Q9NWZ8)
T11 construct: endogenous in cells; host or cells: HeLa cell extract
T11 sequence (Q9NWZ8 1-242): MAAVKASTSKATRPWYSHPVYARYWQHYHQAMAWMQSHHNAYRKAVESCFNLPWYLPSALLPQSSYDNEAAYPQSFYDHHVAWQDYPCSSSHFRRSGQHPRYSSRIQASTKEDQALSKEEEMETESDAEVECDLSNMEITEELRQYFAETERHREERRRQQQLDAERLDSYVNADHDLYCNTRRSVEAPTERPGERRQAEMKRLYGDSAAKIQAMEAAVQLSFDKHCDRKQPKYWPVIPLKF

[12] = HeLa, protein LOC284889 (MACROPHAGE MIGRATION INHIBITORY FACTOR)

SMILES: Nc1nc2cccc(-c3ccccc3)c2n1Cc1ccc(Cl)c(Cl)c1 [compound 3]
- fold changes relative to vehicle control [1]: 1
- fold changes relative to vehicle control [2]: 1.28
- fold changes relative to vehicle control [3]: 1.13
- fold changes relative to vehicle control [4]: 0.83

SMILES: Nc1nc2[nH]cc(CCc3ccc(C(=O)N[C@@H](CCC(=O)O)C(=O)O)cc3)c2c(=O)[nH]1 [PTX, pemetrexed]
- fold changes relative to vehicle control [5]: 1.16
- fold changes relative to vehicle control [6]: 0.93
- fold changes relative to vehicle control [7]: 1.06
- fold changes relative to vehicle control [8]: 1.29
- fold changes relative to vehicle control [9]: 1.16
- fold changes relative to vehicle control [10]: 1.11
- fold changes relative to vehicle control [11]: 0.97

SMILES: Nc1nc2c(c(=O)[nH]1)N(C=O)C(CNc1ccc(C(=O)N[C@@H](CCC(=O)O)C(=O)O)cc1)CN2 (stereo partly shown) [LEU, leucovorin]
- fold changes relative to vehicle control ([5]; HeLa, protein SF3B3): 1.09
- fold changes relative to vehicle control ([6]; HeLa, captured protein ALDH1B1): 1.03
- fold changes relative to vehicle control ([7]; HeLa, protein ZC3H4): 0.99
- fold changes relative to vehicle control [8, 12]: 1.32
- fold changes relative to vehicle control ([9]; HeLa, protein KDELR1): 1.06
- fold changes relative to vehicle control ([10]; HeLa, protein LARS): 1.04
- fold changes relative to vehicle control ([11]; HeLa, protein GEMIN8): 0.97

SMILES: CCCCCCOc1cccc(Cc2cnc(N)nc2N)c1 [compound 2]
- fold changes relative to vehicle control [1]: 0.87
- fold changes relative to vehicle control [2]: 2.06
- fold changes relative to vehicle control [3]: 1.14
- fold changes relative to vehicle control [4]: 1.71

SMILES: NCCOCCOCC(=O)Nc1nc2ncc(CNc3ccc(C(=O)NC(CCC(=O)O)C(=O)O)cc3)nc2c(=O)[nH]1 (stereo not shown) [compound 6]
- fold changes relative to vehicle control ([5]; HeLa, protein SF3B3): 1.18
- fold changes relative to vehicle control ([6]; HeLa, captured protein ALDH1B1): 1.06
- fold changes relative to vehicle control ([7]; HeLa, protein ZC3H4): 1.1
- fold changes relative to vehicle control [8, 12]: 1.26
- fold changes relative to vehicle control ([9]; HeLa, protein KDELR1): 2.19
- fold changes relative to vehicle control ([10]; HeLa, protein LARS): 1
- fold changes relative to vehicle control ([11]; HeLa, protein GEMIN8): 0.8

SMILES: CCCCCCOc1ccc(Cc2cnc(N)nc2N)cc1 [compound 1]
- fold changes relative to vehicle control [1]: 0.97
- fold changes relative to vehicle control [2]: 1.11
- fold changes relative to vehicle control [3]: 1.16
- fold changes relative to vehicle control [4]: 1.2

SMILES: NCCCNc1ccc(C(=O)NC(CCC(=O)O)C(=O)O)cc1 (stereo not shown) [compound 7]
- fold changes relative to vehicle control ([5]; HeLa, protein SF3B3): 1.19
- fold changes relative to vehicle control ([6]; HeLa, captured protein ALDH1B1): 0.95
- fold changes relative to vehicle control ([7]; HeLa, protein ZC3H4): 1.01
- fold changes relative to vehicle control [8, 12]: 1.25
- fold changes relative to vehicle control ([9]; HeLa, protein KDELR1): 1.25
- fold changes relative to vehicle control ([10]; HeLa, protein LARS): 1.13
- fold changes relative to vehicle control ([11]; HeLa, protein GEMIN8): 0.86
